Source: ChEMBL document CHEMBL1153195 (Bioorg Med Chem Lett, 2010)

Columns and labels:
Substance-P receptor = Substance-P receptor (Homo sapiens, UniProt P25103); test: Displacement of [3H]substance P from human NK1 receptor expressed in CHO cells; assay type: cell-based
[1] = Cmax in rat at 1 mg/kg, po; assay type: ADME, organism-based; parameters: dose 1 mg/kg, route oral; conditions: in vivo
[2] = AUC (0 to 8 hrs) in rat at 1 mg/kg, po; assay type: ADME, organism-based; parameters: time < 8 hr, dose 1 mg/kg, route oral; conditions: plasma
Gerbillinae = test: Anxiolytic-like activity in po or sc dosed gerbils assessed as inhibition of GR-73632-induced foot tapping administered 1 hr before GR-73632 challenge measured; assay type: functional; conditions: for ED50: read-out: ID50 (the source's name)
[3] = Ratio of drug level in brain to plasma in rat at 1 mg/kg, po after 5 mins; assay type: ADME, organism-based; parameters: dose 1 mg/kg, route oral

Sequence of Substance-P receptor (P25103 whole entry): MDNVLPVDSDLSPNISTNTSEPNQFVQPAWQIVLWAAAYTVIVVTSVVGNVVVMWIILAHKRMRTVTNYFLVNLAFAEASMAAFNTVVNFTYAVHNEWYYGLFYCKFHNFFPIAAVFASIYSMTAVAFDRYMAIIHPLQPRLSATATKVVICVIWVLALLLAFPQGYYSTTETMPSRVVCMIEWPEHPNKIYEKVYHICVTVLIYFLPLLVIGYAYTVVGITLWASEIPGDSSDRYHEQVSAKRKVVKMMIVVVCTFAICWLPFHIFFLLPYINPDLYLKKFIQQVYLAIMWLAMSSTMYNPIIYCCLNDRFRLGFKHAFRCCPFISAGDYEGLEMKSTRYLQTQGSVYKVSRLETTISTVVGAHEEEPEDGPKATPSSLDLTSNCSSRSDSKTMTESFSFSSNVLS

SMILES	Ki (Substance-P receptor) [nM]	other results
Cc1cc(F)ccc1C1CNCC2CN(Cc3cc(C(F)(F)F)cc(C(F)(F)F)c3)C(=O)N21 (stereo not given)	50.1	–
Cc1cc(F)ccc1[C@H]1CNCCN1C(=O)N1CCC=CC1c1cc(C(F)(F)F)cc(C(F)(F)F)c1 (stereo in doubt; 3a)	20	–
Cc1cc(F)ccc1[C@H]1CNCCN1C(=O)N1CCC=CC1c1cc(C(F)(F)F)cc(C(F)(F)F)c1 (stereo in doubt; 3b)	0.501	–
Cc1cc(F)ccc1[C@H]1CNCCN1C(=O)N1CCNCC1c1cc(C(F)(F)F)cc(C(F)(F)F)c1 (stereo in doubt; 5b) [listing 2 of 2 here]	–	Activity (Gerbillinae): Dose-dependent effect
Cc1cc(F)ccc1[C@H]1CNCCN1C(=O)N(C)[C@H](C)c1cc(C(F)(F)F)cc(C(F)(F)F)c1 [VESTIPITANT]	–	ED50 (Gerbillinae): 0.014 mg/kg

Continued, in another order:

Ki (Substance-P receptor) [nM]	SMILES	other results
0.501	Cc1cc(F)ccc1[C@H]1CNCCN1C(=O)N(C)C1(c2cc(C(F)(F)F)cc(C(F)(F)F)c2)CC1	Cmax [1]: 29 ng/mL; AUC(0-t) at 8 h [2]: 108 ng·h/mL; Activity (Gerbillinae): Dose-dependent effect; ED50 (Gerbillinae): 0.2 mg/kg
63.1	Cc1cc(F)ccc1[C@H]1CNCCN1C(=O)N1CCCC1c1cc(C(F)(F)F)cc(C(F)(F)F)c1 (stereo in doubt; 2a)	–
6.31	Cc1cc(F)ccc1[C@H]1CNCCN1C(=O)N1CCCC1c1cc(C(F)(F)F)cc(C(F)(F)F)c1 (stereo in doubt; 2b)	–
31.6	Cc1cc(F)ccc1[C@H]1CNCCN1C(=O)N1CCCCC1c1cc(C(F)(F)F)cc(C(F)(F)F)c1 (stereo in doubt; 4a)	–
1.26	Cc1cc(F)ccc1[C@H]1CNCCN1C(=O)N1CCCCC1c1cc(C(F)(F)F)cc(C(F)(F)F)c1 (stereo in doubt; 4b)	–
100	Cc1cc(F)ccc1[C@H]1CNCCN1C(=O)N1CCNCC1c1cc(C(F)(F)F)cc(C(F)(F)F)c1 (stereo in doubt; 5a)	–
0.794	Cc1cc(F)ccc1[C@H]1CNCCN1C(=O)N1CCNCC1c1cc(C(F)(F)F)cc(C(F)(F)F)c1 (stereo in doubt; 5b) [listing 1 of 2 here]	Cmax [1]: 32 ng/mL; AUC(0-t) at 8 h [2]: 145 ng·h/mL; ED50 (Gerbillinae): 0.4 mg/kg; Kp at 5 min [3]: 0.9
